Assay results as given in paper PMC10282093, “Structural basis of α1A-adrenergic receptor activation and recognition by an extracellular nanobody” (Nature Communications, 2023).
Where “and” joins values, the source holds several entries; their conditions need not be identical. Identical values can stand only once. Like-named read-outs stand apart in the source and are kept apart here. Blank lines part the entries; values can stand above or below the molecule they belong to.

Legend:
[1] = molecular target: T1, α1AAR (Homo sapiens, UniProt P35348); assay: Glo-sensor cAMP signaling assay with engineered Gsq protein in HEK293T cells; conditions: HEK-293T
T1 sequence (P35348 1-466): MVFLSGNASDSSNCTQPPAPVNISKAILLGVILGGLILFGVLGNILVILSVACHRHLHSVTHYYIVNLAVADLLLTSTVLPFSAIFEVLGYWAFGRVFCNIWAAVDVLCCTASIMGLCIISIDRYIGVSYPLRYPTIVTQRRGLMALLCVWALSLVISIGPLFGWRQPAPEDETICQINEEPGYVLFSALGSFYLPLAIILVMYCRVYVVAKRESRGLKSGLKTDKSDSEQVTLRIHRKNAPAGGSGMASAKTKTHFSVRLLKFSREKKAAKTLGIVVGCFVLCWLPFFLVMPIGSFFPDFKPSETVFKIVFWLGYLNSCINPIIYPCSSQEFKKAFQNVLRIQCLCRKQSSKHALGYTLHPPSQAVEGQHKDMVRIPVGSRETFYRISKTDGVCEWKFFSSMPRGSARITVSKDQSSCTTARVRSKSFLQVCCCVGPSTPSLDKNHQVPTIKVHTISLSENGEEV

[2] = system: HEK293T cells (mock); assay: Glo-sensor cAMP assay, mock (negative control); assay type: cell-based
[3] = molecular target: T2, α1AAR (Homo sapiens, UniProt P35348); assay: [3H]prazosin radioligand binding, Sf9 membranes; conditions: for [3H]prazosin binding: SupFig 5b, listed as Tam
T2 sequence (P35348 1-370): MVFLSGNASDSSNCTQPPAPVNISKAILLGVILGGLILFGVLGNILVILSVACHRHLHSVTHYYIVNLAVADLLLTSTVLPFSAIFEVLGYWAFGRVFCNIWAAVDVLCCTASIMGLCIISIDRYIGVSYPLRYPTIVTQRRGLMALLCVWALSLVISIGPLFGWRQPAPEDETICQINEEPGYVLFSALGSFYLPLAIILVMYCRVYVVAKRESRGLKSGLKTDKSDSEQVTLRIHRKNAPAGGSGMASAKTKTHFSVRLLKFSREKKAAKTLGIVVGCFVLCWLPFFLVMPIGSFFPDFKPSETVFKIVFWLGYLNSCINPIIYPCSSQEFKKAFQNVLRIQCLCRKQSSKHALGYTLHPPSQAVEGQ

activation at 0.01 µM ([1]; 5 min, read-out: α1AAR activation (Noradrenaline %), 10 nM NA, 5 min): 27.1% | activation at 0.01 µM ([1]; 5.5 min, read-out: α1AAR activation (Noradrenaline %), 10 nM NA, […]): 32.4% | activation at 0.01 µM ([1]; 0.1 h, read-out: α1AAR activation (Noradrenaline %), 10 nM NA, 6 min): 36.3% | activation at 0.01 µM ([1]; 6.5 min, read-out: α1AAR activation (Noradrenaline %), 10 nM NA, […]): 40.4% | activation at 0.01 µM ([1]; 7 min, read-out: α1AAR activation (Noradrenaline %), 10 nM NA, 7 min): 44.7% | activation at 0.01 µM ([1]; 0.125 h, read-out: α1AAR activation (Noradrenaline %), 10 nM NA, 7.5 min): 51.2% | activation at 0.01 µM ([1]; 8 min, read-out: α1AAR activation (Noradrenaline %), 10 nM NA, 8 min): 54.9% | activation at 0.01 µM ([1]; 8.5 min, read-out: α1AAR activation (Noradrenaline %), 10 nM NA, 8.5 min): 60.5% | activation at 0.01 µM ([1]; 0.175 h, read-out: α1AAR activation (Noradrenaline %), 10 nM NA, 10.5 min): 78.1% | activation at 0.01 µM ([1]; 11 min, read-out: α1AAR activation (Noradrenaline %), 10 nM NA, 11 min): 83.6% | activation at 0.01 µM ([1]; 11.5 min, read-out: α1AAR activation (Noradrenaline %), 10 nM NA, […]): 88.1% | activation at 0.01 µM ([1]; 0.2 h, read-out: α1AAR activation (Noradrenaline %), 10 nM NA, 12 min): 90.9% | activation at 0.01 µM ([1]; 12.5 min, read-out: α1AAR activation (Noradrenaline %), 10 nM NA, 12.5 min): 92.5% | activation at 0.01 µM ([1]; 13 min, read-out: α1AAR activation (Noradrenaline %), 10 nM NA, 13 min): 95.2% | activation at 0.01 µM ([1]; 0.225 h, read-out: α1AAR activation (Noradrenaline %), 10 nM NA, 13.5 min): 98.2% | activation at 0.01 µM ([1]; 14 min, read-out: α1AAR activation (Noradrenaline %), 10 nM NA, 14 min): 99.3% | activation at 0.01 µM ([1]; 14.5 min, read-out: α1AAR activation (Noradrenaline %), 10 nM NA, […]): 99.1% | activation at 0.01 µM ([1]; 0.25 h, read-out: α1AAR activation (Noradrenaline %), 10 nM NA, 15 min): 102% | activation at 0.01 µM ([1]; 15.5 min, read-out: α1AAR activation (Noradrenaline %), 10 nM NA, 15.5 min): 102% | activation at 0.01 µM ([1]; 16 min, read-out: α1AAR activation (Noradrenaline %), 10 nM NA, 16 min): 101% | activation at 0.01 µM ([1]; 17 min, read-out: α1AAR activation (Noradrenaline %), 10 nM NA, 17 min): 99.9% | activation at 0.01 µM ([1]; 17.5 min, read-out: α1AAR activation (Noradrenaline %), 10 nM NA, 17.5 min): 99.3% | activation at 0.01 µM ([1]; 0.3 h, read-out: α1AAR activation (Noradrenaline %), 10 nM NA, 18 min): 99.3% | activation at 0.01 µM ([1]; 18.5 min, read-out: α1AAR activation (Noradrenaline %), 10 nM NA, 18.5 min): 99% | activation at 0.01 µM ([1]; 19 min, read-out: α1AAR activation (Noradrenaline %), 10 nM NA, 19 min): 96.4% | activation at 0.01 µM ([1]; 0.325 h, read-out: α1AAR activation (Noradrenaline %), 10 nM NA, 19.5 min): 97.2% | activation at 0.01 µM ([1]; 20 min, read-out: α1AAR activation (Noradrenaline %), 10 nM NA, 20 min): 96% | activation at 0.01 µM ([1]; […], read-out: α1AAR activation (Noradrenaline %), 10 nM NA, 9 min): 64.4% | activation at 0.01 µM ([1]; […], read-out: α1AAR activation (Noradrenaline %), 10 nM NA, 16.5 min): 100% | activation at 100 µM ([1]; read-out: α1AAR activation (Noradrenaline %), NA Log[M] -4): 86.3% | activation at 1 µM ([1]; read-out: α1AAR activation (Noradrenaline %), NA Log[M] -6): 105% | activation at 0.1 µM ([1]; read-out: α1AAR activation (Noradrenaline %), NA Log[M] -7): 82.8% | activation at 0.01 µM ([1]; read-out: α1AAR activation (Noradrenaline %), NA Log[M] -8): 45.2%
Molecule: NC[C@H](O)c1ccc(O)c(O)c1 [Noradrenaline, noradrenaline]
cAMP Glo-sensor signal (Noradrenaline %) ([2]; NA Log[M] -4, listed as NA): 41.093% and 40.8624% and 40.5271% | cAMP Glo-sensor signal (Noradrenaline %) ([2]; NA Log[M] -5, listed as NA): 20.1779% and 21.0064% and 19.7646% | cAMP Glo-sensor signal (Noradrenaline %) ([2]; NA Log[M] -6, listed as NA): 7.941% and 8.285% and 8.539% | cAMP Glo-sensor signal (Noradrenaline %) ([2]; NA Log[M] -7, listed as NA): 6.318% and 5.663% and 5.337% | cAMP Glo-sensor signal (Noradrenaline %) ([2]; NA Log[M] -8, listed as NA): 5.486% and 4.494% and 5.028% | cAMP Glo-sensor signal (Noradrenaline %) ([2]; NA Log[M] -9, listed as NA): 5.1702% and 5.365% and 5.344% | cAMP Glo-sensor signal (Noradrenaline %) ([2]; NA Log[M] -10, listed as NA): 5.58% and 5.603% and 5.064% | cAMP Glo-sensor signal (Noradrenaline %) ([2]; NA Log[M] -11, listed as NA): 6.233% and 5.97% and 5.757%

Molecule: CCOc1ccccc1OCCN[C@H](C)Cc1ccc(OC)c(S(N)(=O)=O)c1 [Tamsulosin, tamsulosin]
[3H]prazosin binding ([3]; Tam Log[M] -4): 3.325% and 3.807% and 3.682% | [3H]prazosin binding ([3]; Tam Log[M] -5): 5.496% and 6.839% and 6.881% | [3H]prazosin binding ([3]; Tam Log[M] -6): 11.244% and 11.6216% and 10.1426% | [3H]prazosin binding ([3]; Tam Log[M] -7): 16.0268% and 19.0266% and 22.7187% | [3H]prazosin binding ([3]; Tam Log[M] -8): 68.1875% and 65.3346% and 66.6562% | [3H]prazosin binding ([3]; Tam Log[M] -9): 89.8993% and 114.569% and 102.297% | [3H]prazosin binding ([3]; Tam Log[M] -10): 91.4097% and 102.161% and 96.6541% | [3H]prazosin binding ([3]; Tam Log[M] -11): 80.1028% and 92.7732% and 127.271%

B1: Nb6: nanobody that engages the ICL3 of the inactive-state κ-opioid receptor (antibody, V domains shown)
VH: QVQLQESGGGLVQAGESLRLSCAASGTIFRLYDMGWYRRVSGNQRELVASITSGGSTKYGDSVKGRFTISRDNAKNTVYLQMSSLKPEDTAVYYCNAEYRTGIWEELLDGWGQGTQVTVSS
Normalized [3H]prazosin-binding ([3]; with 5 μM Nb6): 88.7285% and 103.574% and 107.698%
